# Experimental data taken from patent US10676509B2, “Surface-immobilized antimicrobial peptoids” (Northwestern University, priority 2008, dated 2020).
# Read-outs that look alike come from different tables or passages of the source. Starred links: 1 amine or outer side, 2 acyl side, 3 side chain; linkers in the order of their positions; H or OH if unused. Non-standard residues stand in square brackets, D forms with d. Residues, ends and D or L forms follow the SMILES beside them. N(1S-Me-propyl)Gly = CC[C@H](C)NCC(=O)O; Dopa = N[C@@H](Cc1ccc(O)c(O)c1)C(=O)O; X1 = O=C(CN(CC(F)(F)F)[*:1])[*:2]; Nspe = C[C@H](NCC(=O)O)c1ccccc1; Nlys = NCCCCNCC(=O)O; Nme = COCCNCC(=O)O
# Assays:
# [1] = test system: E. coli; assay type: cell-based, Escherichia coli (ATCC 35218)
# Method: (§1) The polymers were initially tested to determine their antibacterial properties in the solution state. Antibacterial activities of the compounds were tested using the methods described above for both Gram-negative and Gram-positive bacterial strains.
# (§2) The minimum inhibitory concentration (MIC) for each polymer was determined according to Clinical Laboratory Standards Institute (CLSI) broth microdilution protocols (M7-A6). The procedure explained previously was followed (Chongsiriwatana et al., supra); briefly, serial dilutions of the polymers were prepared in Mueller-Hinton broth (MHB) in 96-well microtiter plates and bacterial inoculum in MHB was added to each well (˜5.0×10^4 CFU/well). Optical density was monitored at 590 nm for 16 h at 35° C.
# [2] = test system: B. subtilis; assay type: cell-based, Bacillus subtilis (ATCC 6633); settings: 16 h
# Method: as §1, §2
# [3] = test system: S. epidermidis; assay type: cell-based, Staphylococcus epidermidis RP62A (ATCC 12228); settings: 16 h
# Method: as §1, §2
# [4] = test system: P. aeruginosa; assay type: cell-based, Pseudomonas aeruginosa (ATCC 700829); settings: 16 h
# Method: as §1, §2
# [5] = test system: E. coli; test: Antibacterial activity on surfaces: bacterial adhesion and membrane permeation (FITC) on modified TiO2 slides; assay type: cell-based, Escherichia coli; settings: for E. coli attachment to modified TiO2: 2 h exposure, compared with bare TiO2; for Percent FITC-stained bacteria: compared among surfaces
# Method: Bacterial experiments on modified TiO2 slides were performed by exposing the surfaces to an E. coli suspension for two hours and then centrifuging to remove unattached and weakly attached bacteria. The bacteria remaining on the surfaces were imaged in phase contrast for determination of cell numbers, and in fluorescence after staining with FITC to detect cells with compromised membranes. From these images, total number of adherent bacteria (from phase contrast) and percent of attached cells with compromised membranes (from FITC staining) were determined and are shown in Table 3.
# E. coli were streaked from frozen stocks onto Mueller-Hinton agar and incubated overnight at 37° C. A few colonies were then used to inoculate 25 ml of sterile Mueller-Hinton broth (MHB) and grown overnight at 37° C. TiO2-coated glass slides were modified with the polymers using the previously described procedure. Two-well chambers were clamped to the slides and sealed by injecting silastic resin, which was allowed to cure overnight. Slides were sterilized by exposure to UV light for 10 minutes. The bacterial suspension was concentrated by centrifugation and resuspended in PBS at a concentration of 5×10^7 CFU/ml; 2 ml of the E. coli suspension was added to each slide chamber. Slide chambers were covered and placed in a humidified incubator at 37° C.; after 2 h, nonadherent bacteria were removed by inverted centrifugation for 2 min at 30 rcf in sealed bags filled with PBS (Jensen et al., 2004). […] Slides were rinsed with PBS and imaged by confocal microscopy equipped with an inverted microscope (Leica TCS SP2). Phase contrast and fluorescent (488-nm band-pass filter for excitation of FITC) images were taken at identical locations to determine bacterial cell count and percent stained with FITC. The microscopy images were quantified using thresholding in ImageJ, and averages with standard deviations for at least nine images from one slide are reported. While slides were prepared in duplicate or triplicate and consistency was qualitatively confirmed between experimental samples, the reported counts and images were obtained from a single slide for each condition.
# [6] = test system: E. coli, B. subtilis, S. epidermidis and P. aeruginosa; test: Antibacterial activity in solution (MIC), statements for all bacterial strains; assay type: cell-based; settings: for Antibacterial activity in solution: tested concentrations
# Method: as §1, §2
SMILES,"MIC E. coli ([1]; solution, MHB, 16 h at 35° C.)",MIC B. subtilis [2],MIC S. epidermidis [3],MIC P. aeruginosa [4],MIC E. coli ([1]; 16 h),E. coli attachment to modified TiO2 [5],"Total number of FITC-stained bacteria relative to PMP110 surfaces ([5]; adhered E. coli, 2 h)",Percent FITC-stained bacteria ([5]; adhered E. coli),MIC relative to AMP alone (times greater) [6],Antibacterial activity in solution [6]
"C[C@@H](c1ccccc1)N(CC(N)=O)C(=O)CN(C(=O)CN(CCCCN)C(=O)CN(C(=O)CN(C(=O)CN(CCCCN)C(=O)[C@@H]1CCCN1C(=O)CN(C(=O)CN(CCCCN)C(=O)CN(C(=O)CN(C(=O)CNCCCCN)[C@@H](C)c1ccccc1)[C@@H](C)c1ccccc1)[C@@H](C)c1ccccc1)[C@@H](C)c1ccccc1)[C@@H](C)c1ccccc1)[C@@H](C)c1ccccc1 [AMP, H-NLys-Nspe-Nspe-NLys-Nspe-Pro-[NLys-Nspe-Nspe]2—NH2] (H-[Nlys][Nspe][Nspe][Nlys][Nspe]P[Nlys][Nspe][Nspe][Nlys][Nspe][Nspe]-NH2)",12.5 µM,1.6 µM,1.6 µM,25 µM,–,–,–,–,–,–
COCCN(CC(=O)N(CCOC)CC(=O)N(CCOC)CC(=O)N(CCOC)CC(=O)N(CCOC)CC(=O)N(CCOC)CC(=O)N(CCOC)CC(=O)N(CCOC)CC(=O)N(CCOC)CC(=O)N(CCOC)CC(=O)N(CC(=O)N[C@@H](Cc1ccc(O)c(O)c1)C(=O)N[C@@H](CCCCN)C(=O)N[C@@H](Cc1ccc(O)c(O)c1)C(=O)N[C@@H](CCCCN)C(=O)N[C@@H](Cc1ccc(O)c(O)c1)C(N)=O)CC(F)(F)F)C(=O)CN(CCOC)C(=O)CN(CCOC)C(=O)CN(CCOC)C(=O)CN(CCOC)C(=O)CN(CCOC)C(=O)CN(CCOC)C(=O)CN(CCOC)C(=O)CN(CCOC)C(=O)CN(CCOC)C(=O)CN(CCOC)C(=O)CN(C(=O)CN(C(=O)CN(CCCCN)C(=O)CN(C(=O)CN(C(=O)CN(CCCCN)C(=O)[C@@H]1CCCN1C(=O)CN(C(=O)CN(CCCCN)C(=O)CN(C(=O)CN(C(=O)CNCCCCN)[C@@H](C)c1ccccc1)[C@@H](C)c1ccccc1)[C@@H](C)c1ccccc1)[C@@H](C)c1ccccc1)[C@@H](C)c1ccccc1)[C@@H](C)c1ccccc1)[C@@H](C)c1ccccc1 [PMP1-AMP] (H-[Nlys][Nspe][Nspe][Nlys][Nspe]P[Nlys][Nspe][Nspe][Nlys][Nspe][Nspe][Nme][Nme][Nme][Nme][Nme][Nme][Nme][Nme][Nme][Nme][Nme][Nme][Nme][Nme][Nme][Nme][Nme][Nme][Nme][Nme][X1][Dopa]K[Dopa]K[Dopa]-NH2),–,3.1 µM,3.1 µM,200 µM,50 µM,comparable to bare TiO2 surfaces,more than ten times greater,highest percentage of bacterial cells with compromised membranes,2-4 times,active against all bacterial strains
"CC[C@H](C)N(CC(=O)N(CCCCN)CC(=O)N(CC(=O)N(CC(=O)N(CCCCN)CC(=O)N(CC(=O)N(CC(=O)N(CCCCN)CC(=O)N(CC(=O)N(CC(=O)N(CCOC)CC(=O)N(CCOC)CC(=O)N(CCOC)CC(=O)N(CCOC)CC(=O)N(CCOC)CC(=O)N(CCOC)CC(=O)N(CCOC)CC(=O)N(CCOC)CC(=O)N(CCOC)CC(=O)N(CCOC)CC(=O)N(CCOC)CC(=O)N(CCOC)CC(=O)N(CCOC)CC(=O)N(CCOC)CC(=O)N(CCOC)CC(=O)N(CCOC)CC(=O)N(CCOC)CC(=O)N(CCOC)CC(=O)N(CCOC)CC(=O)N(CCOC)CC(=O)N(CC(=O)N[C@@H](Cc1ccc(O)c(O)c1)C(=O)N[C@@H](CCCCN)C(=O)N[C@@H](Cc1ccc(O)c(O)c1)C(=O)N[C@@H](CCCCN)C(=O)N[C@@H](Cc1ccc(O)c(O)c1)C(N)=O)CC(F)(F)F)[C@@H](C)CC)[C@@H](C)CC)[C@@H](C)CC)[C@@H](C)CC)[C@@H](C)CC)[C@@H](C)CC)C(=O)CN(C(=O)CNCCCCN)[C@@H](C)CC [PMP1-C, reference compound] (H-[Nlys][N(1S-Me-propyl)Gly][N(1S-Me-propyl)Gly][Nlys][N(1S-Me-propyl)Gly][N(1S-Me-propyl)Gly][Nlys][N(1S-Me-propyl)Gly][N(1S-Me-propyl)Gly][Nlys][N(1S-Me-propyl)Gly][N(1S-Me-propyl)Gly][Nme][Nme][Nme][Nme][Nme][Nme][Nme][Nme][Nme][Nme][Nme][Nme][Nme][Nme][Nme][Nme][Nme][Nme][Nme][Nme][X1][Dopa]K[Dopa]K[Dopa]-NH2)",–,>100 µM,>100 µM,>100 µM,>100 µM,much higher than PMP1-AMP and TiO2 surfaces,–,low and comparable to the control TiO2 substrates,–,not active at the tested concentrations
"CC[C@H](C)N(CC(N)=O)C(=O)CN(C(=O)CN(CCCCN)C(=O)CN(C(=O)CN(C(=O)CN(CCCCN)C(=O)CN(C(=O)CN(C(=O)CN(CCCCN)C(=O)CN(C(=O)CN(C(=O)CNCCCCN)[C@@H](C)CC)[C@@H](C)CC)[C@@H](C)CC)[C@@H](C)CC)[C@@H](C)CC)[C@@H](C)CC)[C@@H](C)CC [Peptoid C, H-[NLys-Nssb-Nssb]4-NH2, reference compound] (H-[Nlys][N(1S-Me-propyl)Gly][N(1S-Me-propyl)Gly][Nlys][N(1S-Me-propyl)Gly][N(1S-Me-propyl)Gly][Nlys][N(1S-Me-propyl)Gly][N(1S-Me-propyl)Gly][Nlys][N(1S-Me-propyl)Gly][N(1S-Me-propyl)Gly]-NH2)",–,>100 µM,>100 µM,>100 µM,>100 µM,–,–,–,–,not active at the tested concentrations
